In patent US5045566A, “Novel imidate insecticides” (ICI Americas Inc., priority 1989, dated 1991):

Experiments:
Assay type in all cases: in vivo
[1] = system: Housefly [Musca domestica]; test: Housefly contact mortality in dishes (HF), 48 hours; conditions: μg of test compound per 25 female flies
Protocol: (§1) The compounds in Tables 1 and 2 above were tested for insecticidal activity using the following testing procedures. LC50 values, based on the results of these tests and calculated according to dosage-mortality curves, are expressed in Table 3.
Housefly [Musca domestica]:
Test compounds were diluted in acetone and aliquots pipetted onto the bottom of aluminum dishes. To ensure even spreading of the chemical on the bottom of the dishes, 1 ml of acetone containing 0.01% peanut oil was also added to each dish. After all solvents had evaporated, the dishes were placed in circular cardboard cages containing 25 female houseflies, 1-2 days old. The cages were covered on the bottom with cellophane and on the top with tulle netting, and each contained a sugar-water saturated cotton plug for maintenance of the flies. Mortality was recorded after 48 hours. Test levels ranged from 100 μg/25 female houseflies downward. The LC-50 value is expressed below in Table 3 under the heading "HF", in terms of μg of the test compound per 25 female flies.

[2] = system: Tobacco Budworm [Heliothis virescens (Fabricius)] eggs; test: Tobacco budworm eggs (TBW-E); conditions: percent in solution; 2-day old eggs
Protocol: as §1
Tobacco Budworm [Heliothis virescens (Fabricius)]:
(b). Eggs: Paper towel patches of 2-day old eggs of the tobacco budworm were dipped in acetone solutions of the test compound and placed in petri dishes containing a portion of larval rearing medium. Treated eggs were maintained at 78° F. and mortality was recorded after all control eggs had hatched and the young larvae were feeding on the media. Test concentrations ranged from 0.1% downward. The LC-50 value is expressed below in Table 3 under the heading "TBW-E" in terms of percent of the test compound in the solution.

[3] = system: Cabbage Looper [Trichoplusia ni (Hubner)]; test: Cabbage looper leaf dip (CL), 3-5 days; conditions: percent in solution, second-instar larvae
Protocol: as §1
Cabbage Looper [Trichoplusia ni (Hubner)]:
Test compounds were diluted in a 50-50 acetone-water solution. Cotyledons of hyzini squash (Calabacita abobrinha), approximately 1×1.5 inches, were immersed in the test solutions for 2-3 seconds and placed on a wire screen to dry. The dried leaves were placed in petri dishes containing a moistened piece of filter paper and infested with 5 second-instar cabbage looper larvae. The dishes were placed in a high humidity chamber. Mortality of the larvae was recorded 3-5 days later. Test concentrations ranged from 0.1% downward. The LC-50 value is expressed below in Table 3 under the heading "CL" in terms of percent of the test compound in solution.

## CC(C)C(=Nc1cccc(OC(F)(F)C(F)F)c1)OCc1cccc(Oc2ccc(F)cc2)c1 [Compound 288]
[1]
  LC50 HF: > 100 µg
[2]
  LC50 TBW E (eggs): > 0.1%
[3]
  LC50 CL: 0.0015%

## CC(C)c1ccc(N=C(OCc2cccc(Oc3ccc(F)cc3)c2)C(C)(C)C)cc1 [Compound 322]
[1]
  LC50 HF: > 100 µg
[2]
  LC50 TBW E (eggs): > 0.1%
[3]
  LC50 CL: 0.007%

## CC(Br)C(=Nc1ccc(F)c(Cl)c1)OCc1cccc(Oc2ccccc2)c1 (stereo not drawn) [Compound 118]
[1]
  LC50 HF: 18 µg
[2]
  LC50 TBW E (eggs): > 0.1%
[3]
  LC50 CL: 0.0013%

## CC(C)C(=Nc1ccc(F)cc1)OCc1coc(Cc2ccccc2)c1 [Compound 491]
[1]
  LC50 HF: 9 µg
[2]
  LC50 TBW E (eggs): 0.08%
[3]
  LC50 CL: 0.0028%

## CCC(C)C(=Nc1ccc(C(C)C)cc1)OCc1cccc(Oc2ccccc2)c1 (stereo not drawn) [Compound 317]
[1]
  LC50 HF: > 100 µg
[2]
  LC50 TBW E (eggs): 0.03%
[3]
  LC50 CL: 0.0045%

## CC(C)(F)C(=Nc1ccc(F)c(F)c1)OCc1cccc(Oc2ccc(F)cc2)c1 [Compound 318]
[1]
  LC50 HF: 19 µg
[2]
  LC50 TBW E (eggs): > 0.1%
[3]
  LC50 CL: 0.0007%

## CC(C)C(=Nc1ccc(F)c(Br)c1)OCc1cccc(Oc2ccc(Br)cc2)c1 [Compound 276]
[1]
  LC50 HF: 39 µg
[2]
  LC50 TBW E (eggs): 0.1%
[3]
  LC50 CL: 0.002%

## CC(C)C(=Nc1ccc2c(c1)OCO2)OCc1cccc(Oc2ccccc2F)c1 [Compound 183]
[1]
  LC50 HF: 10 µg
[2]
  LC50 TBW E (eggs): 0.075%
[3]
  LC50 CL: 0.00075%

## CC(C)C(=Nc1cccc(C(F)(F)F)c1)OCc1cccc(Oc2ccc(Br)cc2)n1 [Compound 493]
[1]
  LC50 HF: 36 µg
[2]
  LC50 TBW E (eggs): 0.05%
[3]
  LC50 CL: 0.0008%

## CC(C)C(=Nc1ccc(Cl)cc1Cl)OCc1cccc(Oc2ccc(F)cc2)c1 [Compound 312]
[1]
  LC50 HF: > 100 µg
[2]
  LC50 TBW E (eggs): > 0.1%
[3]
  LC50 CL: 0.006%

## CCC(=Nc1ccc(F)cc1F)OCc1cccc(Oc2ccccc2)c1 [Compound 59]
[1]
  LC50 HF: 25 µg
[2]
  LC50 TBW E (eggs): > 0.1%
[3]
  LC50 CL: 0.02%

## CC(C)C(=Nc1ccc(Cl)cc1Cl)OCc1cccc(Oc2ccccc2)c1 [Compound 311]
[1]
  LC50 HF: 22 µg
[2]
  LC50 TBW E (eggs): 0.1%
[3]
  LC50 CL: 0.0017%

## CCC(C)C(=Nc1ccc(Cl)c(Cl)c1)OCc1cccc(Oc2ccccc2)c1 (stereo not drawn) [Compound 39]
[1]
  LC50 HF: > 100 µg
[2]
  LC50 TBW E (eggs): > 0.1%
[3]
  LC50 CL: 0.0023%

## CC(C)C(=Nc1ccc(F)c(Cl)c1)OCc1cccc(OCc2ccccc2)c1 [Compound 472]
[1]
  LC50 HF: > 100 µg
[2]
  LC50 TBW E (eggs): > 0.1%
[3]
  LC50 CL: 0.0025%

## CC(C)C(=Nc1ccc2c(c1)OCO2)OCc1cccc(Oc2ccccc2)n1 [Compound 467]
[1]
  LC50 HF: 6 µg
[2]
  LC50 TBW E (eggs): 0.04%
[3]
  LC50 CL: 0.003%

## CC(C)(F)C(=Nc1cccc(C(F)(F)F)c1)OCc1cccc(Oc2ccc(F)cc2)c1 [Compound 319]
[1]
  LC50 HF: 44 µg
[2]
  LC50 TBW E (eggs): > 0.1%
[3]
  LC50 CL: 0.0007%

## CC(C)C(=Nc1cccc(C(F)(F)F)c1)OCc1cccc(OCc2ccc(F)cc2)c1 [Compound 489]
[1]
  LC50 HF: > 100 µg
[2]
  LC50 TBW E (eggs): > 0.1%
[3]
  LC50 CL: < 0.1%

## CC(C)C(=Nc1ccc2c(c1)OCO2)OCc1c(F)c(F)c(F)c(F)c1F [Compound 464]
[1]
  LC50 HF: > 100 µg
[2]
  LC50 TBW E (eggs): > 0.1%
[3]
  LC50 CL: 0.08%

## CC(C)C(=Nc1ccc(F)c(F)c1)OCc1cccc(Oc2ccc(Br)cc2)c1 [Compound 275]
[1]
  LC50 HF: 21 µg
[2]
  LC50 TBW E (eggs): 0.045%
[3]
  LC50 CL: 0.00012%

## CC(C)C(=Nc1ccc(F)cc1)OCc1cccc(Oc2ccc(F)cc2)c1 [Compound 197]
[1]
  LC50 HF: > 100 µg
[2]
  LC50 TBW E (eggs): 0.05%
[3]
  LC50 CL: 0.0004%

## CC(C)C(=Nc1cccc(F)c1)OCc1cccc(Oc2ccc(F)cc2)c1 [Compound 200]
[1]
  LC50 HF: 7.5 µg
[2]
  LC50 TBW E (eggs): 0.1%
[3]
  LC50 CL: 0.00075%

## CC(C)C(=Nc1cccc(C(F)(F)F)c1)OCc1ccc(OCc2ccc(F)cc2)cc1 [Compound 488]
[1]
  LC50 HF: > 100 µg
[2]
  LC50 TBW E (eggs): > 0.1%
[3]
  LC50 CL: 0.025%

## CC(C)C(=Nc1cccc(C#N)c1)OCc1cccc(Oc2ccccc2)c1 [Compound 126]
[1]
  LC50 HF: > 100 µg
[2]
  LC50 TBW E (eggs): > 0.1%
[3]
  LC50 CL: 0.08%

## COc1ccc(N=C(OCc2cccc(Oc3ccc(F)cc3)c2)C(C)C)cc1Cl [Compound 110]
[1]
  LC50 HF: 26 µg
[2]
  LC50 TBW E (eggs): 0.04%
[3]
  LC50 CL: 0.007%

## CC(C)C(=Nc1ccc(F)c(Cl)c1)OC(F)c1cccc(Oc2ccc(F)cc2)c1 (stereo not drawn) [Compound 502]
[1]
  LC50 HF: 80 µg

## CC(C)C(=Nc1ccc2c(c1)OCO2)OCc1ccc(F)c(Oc2ccc(Cl)cc2)c1 [Compound 313]
[1]
  LC50 HF: > 100 µg
[2]
  LC50 TBW E (eggs): 0.013%
[3]
  LC50 CL: 0.00025%

## CC(C)C(=Nc1ccc(C(C)(C)C)cc1)OCc1cccc(Oc2ccccc2)n1 [Compound 496]
[1]
  LC50 HF: > 100 µg
[2]
  LC50 TBW E (eggs): > 0.1%
[3]
  LC50 CL: 0.006%

## CC(C)C(=Nc1ccc(F)c(Cl)c1)OCc1ccc(F)c(Br)c1 [Compound 473]
[1]
  LC50 HF: > 100 µg
[2]
  LC50 TBW E (eggs): > 0.1%
[3]
  LC50 CL: 0.025%

## CC(C)C(=Nc1ccc(Cl)cc1)OCc1coc(Cc2ccccc2)c1 [Compound 484]
[1]
  LC50 HF: 16 µg
[2]
  LC50 TBW E (eggs): > 0.1%
[3]
  LC50 CL: 0.003%

## CC(=O)c1cccc(N=C(OCc2cccc(Oc3ccccc3)c2)C(C)C)c1 [Compound 170]
[1]
  LC50 HF: 37 µg
[2]
  LC50 TBW E (eggs): > 0.1%
[3]
  LC50 CL: 0.1%

## CC(Br)C(=Nc1ccc(F)c(Cl)c1)OCc1cccc(Oc2ccc(F)cc2)c1 (stereo not drawn) [Compound 305]
[1]
  LC50 HF: > 100 µg
[2]
  LC50 TBW E (eggs): > 0.1%
[3]
  LC50 CL: 0.048%

## CC(C)C(=Nc1ccc(F)c(Cl)c1)OCc1coc(Cc2ccccc2)c1 [Compound 474]
[1]
  LC50 HF: 8 µg
[2]
  LC50 TBW E (eggs): > 0.1%
[3]
  LC50 CL: 0.0012%

## CCC(=Nc1cccc(Cl)c1Cl)OCc1cccc(Oc2ccccc2)c1 [Compound 28]
[1]
  LC50 HF: > 100 µg
[2]
  LC50 TBW E (eggs): > 0.1%
[3]
  LC50 CL: 0.009%

## CCC(CC)C(=Nc1ccc(C(C)C)cc1)OCc1cccc(Oc2ccccc2)c1 [Compound 321]
[1]
  LC50 HF: > 100 µg
[2]
  LC50 TBW E (eggs): > 0.1%
[3]
  LC50 CL: 0.05%

## CC(C)C(=Nc1cccc(C(F)(F)F)c1)OCc1ccc(OCc2ccccc2)cc1 [Compound 476]
[1]
  LC50 HF: > 100 µg
[2]
  LC50 TBW E (eggs): > 0.1%
[3]
  LC50 CL: 0.015%

## CCCC(=Nc1ccc(F)c(Cl)c1)OCc1cccc(Oc2ccccc2)c1 [Compound 123]
[1]
  LC50 HF: > 100 µg
[2]
  LC50 TBW E (eggs): > 0.1%
[3]
  LC50 CL: 0.012%

## CCOc1cccc(N=C(OCc2cccc(Oc3ccccc3)c2)C(C)C)c1 [Compound 171]
[1]
  LC50 HF: 80 µg
[2]
  LC50 TBW E (eggs): > 0.1%
[3]
  LC50 CL: 0.01%

## CCC(CC)C(=Nc1ccc(Cl)cc1)OCc1cccc(Oc2ccc(F)cc2)c1 [Compound 290]
[1]
  LC50 HF: > 100 µg
[2]
  LC50 TBW E (eggs): > 0.1%
[3]
  LC50 CL: 0.017%

## CC(C)C(=Nc1cccc(Oc2ccccn2)c1)OCc1cccc(Oc2ccccc2)c1 [Compound 114]
[1]
  LC50 HF: 92 µg
[3]
  LC50 CL: < 0.1%
